According to ChEMBL document CHEMBL1152774, “Inhibition of Trypanosoma brucei glucose-6-phosphate dehydrogenase by human steroids and their effects on the viability of cultured parasites” (Bioorg Med Chem, 2009):
Active and inactive are the calls of the source. The calls are words filed in the database; no cut-off is given here.

Assays:
[1] = biological target: T1, Glucose-6-phosphate 1-dehydrogenase (Homo sapiens, UniProt P11413); assay: Inhibition of human G6PDH using glucose-6-phosphate as substrate by Lineweaver-Burke plot
[2] = system: Trypanosoma brucei; assay: Trypanocidal activity against Trypanosoma brucei 427 bloodstream form after 48 hrs by MTS assay; assay type: functional; settings: Trypanosoma brucei, 427, 48 h; read-out: LD50 (the source's name)
[3] = biological target: T1, Glucose-6-phosphate 1-dehydrogenase; assay: Inhibition of human G6PDH using NADP as substrate by Lineweaver-Burke plot
[4] = system: Leishmania mexicana; assay: Antileishmanial activity against Leishmania mexicana early-metacyclic promastigotes up to 96 uM after 48 hrs by MTS assay; assay type: functional, organism-based
[5] = biological target: T2, Glucose-6-phosphate 1-dehydrogenase (Trypanosoma brucei, UniProt Q9GRG7); assay: Inhibition of Trypanosoma brucei G6PDH using NADP as substrate by Lineweaver-Burke plot
T2 sequence (Q9GRG7 whole entry): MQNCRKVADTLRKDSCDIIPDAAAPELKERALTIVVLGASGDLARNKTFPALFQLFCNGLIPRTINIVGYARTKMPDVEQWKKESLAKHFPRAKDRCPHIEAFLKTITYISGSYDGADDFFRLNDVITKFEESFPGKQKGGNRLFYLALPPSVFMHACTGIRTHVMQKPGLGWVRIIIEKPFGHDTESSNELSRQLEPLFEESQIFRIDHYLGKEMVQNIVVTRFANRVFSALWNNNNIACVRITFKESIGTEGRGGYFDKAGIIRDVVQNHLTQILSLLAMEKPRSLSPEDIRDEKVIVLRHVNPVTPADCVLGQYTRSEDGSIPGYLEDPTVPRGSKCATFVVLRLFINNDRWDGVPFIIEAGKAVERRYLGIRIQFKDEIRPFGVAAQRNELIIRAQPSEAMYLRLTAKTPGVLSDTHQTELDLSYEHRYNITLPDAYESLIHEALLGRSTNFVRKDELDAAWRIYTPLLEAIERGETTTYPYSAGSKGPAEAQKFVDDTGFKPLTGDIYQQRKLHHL

[6] = biological target: T2, Glucose-6-phosphate 1-dehydrogenase; assay: Inhibition of Trypanosoma brucei G6PDH using glucose-6-phosphate as substrate by Lineweaver-Burke plot

T1 sequence (P11413 whole entry): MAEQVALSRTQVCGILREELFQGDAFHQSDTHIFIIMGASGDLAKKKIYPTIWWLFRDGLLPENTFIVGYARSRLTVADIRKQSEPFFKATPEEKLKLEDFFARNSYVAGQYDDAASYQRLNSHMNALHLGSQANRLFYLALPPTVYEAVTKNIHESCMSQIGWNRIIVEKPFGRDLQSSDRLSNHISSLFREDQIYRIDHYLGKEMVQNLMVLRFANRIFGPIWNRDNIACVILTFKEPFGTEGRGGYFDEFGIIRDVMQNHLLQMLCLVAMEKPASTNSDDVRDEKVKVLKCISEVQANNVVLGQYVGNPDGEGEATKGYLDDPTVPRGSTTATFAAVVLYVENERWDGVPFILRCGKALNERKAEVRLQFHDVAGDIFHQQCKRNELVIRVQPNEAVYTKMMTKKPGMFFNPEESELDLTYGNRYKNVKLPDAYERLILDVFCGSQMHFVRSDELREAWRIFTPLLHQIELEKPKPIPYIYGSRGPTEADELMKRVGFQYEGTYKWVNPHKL

| Structure (SMILES) | Ki [1] [µM] | LC50 [2] [µM] | Ki [3] [µM] | Activity [4] | Ki [5] [µM] | Ki [6] [µM] |
| --- | --- | --- | --- | --- | --- | --- |
| C[C@]12CC[C@H](O)C[C@@H]1CC[C@@H]1[C@@H]2CC[C@]2(C)C(=O)CC[C@@H]12 [EPIANDROSTERONE] | 3.4 | 24.5 | 3 | inactive | 0.46 | 0.49 |
| C[C@]12CC[C@H](O)CC1=CC[C@@H]1[C@@H]2CC[C@]2(C)C(=O)CC[C@@H]12 [PRASTERONE] | 8.9 | 43.8 | 6.2 | inactive | 1.1 | 1.7 |
